According to PubChem BioAssay (NCI):
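Step 1: Grow cells in 96-well plates. Step 2: Expose to compound for 48 hours at 5 concentrations. Step 3: Interpolate endpoints linearly; if unreached, use highest concentration. GI50 marks 50% less growth. TGI is the concentration that stops growth completely.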

Legend:
Experiment in all cases: growth of human tumour cells (NCI), 48 h
UACC-257 melanoma = system: UACC-257 melanoma
ACHN renal = system: ACHN renal
SF-539 CNS = system: SF-539 CNS
RXF 393 renal = system: RXF 393 renal
PC-3 prostate = system: PC-3 prostate
MOLT-4 leukemia = system: MOLT-4 leukemia
EKVX NSCLC = system: EKVX NSCLC
NCI-H23 lung = system: NCI-H23 lung
MCF7 breast = system: MCF7 breast
COLO 205 colon = system: COLO 205 colon
NCI-H522 lung = system: NCI-H522 lung
SF-295 CNS = system: SF-295 CNS
SNB-75 CNS = system: SNB-75 CNS
OVCAR-8 ovarian = system: OVCAR-8 ovarian
SK-MEL-5 melanoma = system: SK-MEL-5 melanoma
SK-MEL-2 melanoma = system: SK-MEL-2 melanoma
OVCAR-5 ovarian = system: OVCAR-5 ovarian
SW-620 colon = system: SW-620 colon
CCRF-CEM leukemia = system: CCRF-CEM leukemia
HS 578T breast = system: HS 578T breast
MDA-MB-231 breast = system: MDA-MB-231 breast
HOP-92 NSCLC = system: HOP-92 NSCLC
A498 renal = system: A498 renal
SN12C renal = system: SN12C renal
NCI-H226 lung = system: NCI-H226 lung
HT29 colon = system: HT29 colon
A549 NSCLC = system: A549 NSCLC

For C=CCn1c(SCC(=O)Nc2ccc(C(=O)/C=C/c3cc(OC)c(OC)c(OC)c3)cc2)nnc1-c1ccc(Cl)cc1, which GI50 (UACC-257 melanoma) is on record?
The GI50 was 6.38 µM.

What about the TGI (UACC-257 melanoma) of the same compound?
Its TGI is 59.6 µM.

What about the GI50 (ACHN renal) of the same compound?
Its GI50 is 3.67 µM.

And the TGI (ACHN renal)?
The TGI was 22 µM.

What about the GI50 (SF-539 CNS) of the same compound?
Its GI50 is 2.96 µM.

And the TGI (SF-539 CNS)?
The TGI was 9.83 µM.

And the GI50 (RXF 393 renal)?
The GI50 was 1.47 µM.

What about the TGI (RXF 393 renal) of the same compound?
The TGI was 3.37 µM.

And the GI50 (PC-3 prostate)?
The GI50 was 3.2 µM.

And the TGI (PC-3 prostate)?
The TGI was 26.4 µM.

What about the GI50 (MOLT-4 leukemia) of the same compound?
Its GI50 is 2.66 µM.

What about the TGI (MOLT-4 leukemia) of the same compound?
The TGI was 11.4 µM.

What about the GI50 (EKVX NSCLC) of the same compound?
The GI50 was 2.92 µM.

And the TGI (EKVX NSCLC)?
The TGI was 15.5 µM.

What about the GI50 (NCI-H23 lung) of the same compound?
Its GI50 is 2.7 µM.

What about the TGI (NCI-H23 lung) of the same compound?
Its TGI is 10.5 µM.

And the GI50 (MCF7 breast)?
Its GI50 is 0.38 µM.

And the TGI (MCF7 breast)?
The TGI was 11.2 µM.

And the GI50 (COLO 205 colon)?
The GI50 was 4.92 µM.

And the TGI (COLO 205 colon)?
Its TGI is 67.3 µM.

What about the GI50 (NCI-H522 lung) of the same compound?
The GI50 was 3.25 µM.

What about the TGI (NCI-H522 lung) of the same compound?
The TGI was 17.4 µM.

And the GI50 (SF-295 CNS)?
The GI50 was 4.49 µM.

And the TGI (SF-295 CNS)?
Its TGI is 48.8 µM.

What about the GI50 (SNB-75 CNS) of the same compound?
Its GI50 is 1.79 µM.

And the TGI (SNB-75 CNS)?
The TGI was 12.8 µM.

And the GI50 (OVCAR-8 ovarian)?
The GI50 was 2.79 µM.

What about the TGI (OVCAR-8 ovarian) of the same compound?
Its TGI is 15 µM.

What about the GI50 (SK-MEL-5 melanoma) of the same compound?
The GI50 was 2.53 µM.

What about the TGI (SK-MEL-5 melanoma) of the same compound?
Its TGI is 14.3 µM.

And the GI50 (SK-MEL-2 melanoma)?
The GI50 was 4.52 µM.

And the TGI (SK-MEL-2 melanoma)?
The TGI was 36.6 µM.

What about the GI50 (OVCAR-5 ovarian) of the same compound?
Its GI50 is 4.75 µM.

What about the TGI (OVCAR-5 ovarian) of the same compound?
The TGI was 67.7 µM.

And the GI50 (SW-620 colon)?
Its GI50 is 3 µM.

What about the TGI (SW-620 colon) of the same compound?
The TGI was > 100 µM.

What about the GI50 (CCRF-CEM leukemia) of the same compound?
Its GI50 is 2.38 µM.

And the TGI (CCRF-CEM leukemia)?
The TGI was 13.3 µM.

What about the GI50 (HS 578T breast) of the same compound?
Its GI50 is 5.81 µM.

And the TGI (HS 578T breast)?
Its TGI is > 100 µM.

And the GI50 (MDA-MB-231 breast)?
The GI50 was 3.08 µM.

What about the TGI (MDA-MB-231 breast) of the same compound?
Its TGI is > 100 µM.

And the GI50 (HOP-92 NSCLC)?
The GI50 was 2.47 µM.

And the TGI (HOP-92 NSCLC)?
The TGI was 11.8 µM.

And the GI50 (A498 renal)?
Its GI50 is 2.47 µM.

And the TGI (A498 renal)?
The TGI was 10.6 µM.

And the GI50 (SN12C renal)?
The GI50 was 3.43 µM.

What about the TGI (SN12C renal) of the same compound?
Its TGI is > 100 µM.

What about the GI50 (NCI-H226 lung) of the same compound?
The GI50 was 1.94 µM.

What about the TGI (NCI-H226 lung) of the same compound?
The TGI was 7.42 µM.

And the GI50 (HT29 colon)?
Its GI50 is 2.33 µM.

And the TGI (HT29 colon)?
Its TGI is 5.69 µM.

What about the GI50 (A549 NSCLC) of the same compound?
The GI50 was 3.61 µM.
